Data on eight compounds can be found in US20230085263A1, “TASTEFUL NATURAL SWEETENER AND FLAVOR” (EPC Natural Products Co., Ltd., priority 2018, published 2023).

Entries after “also recorded” stand apart in the source; their conditions may differ.

A short description of data set [1]: Kinetics of reaction in dependence of pH-conditions: degradation of Phe and Reb-A, Gluc, Xyl, Suc (HPLC/MS). The conditions noted are these: KH2PO4 Buffer, 1.0 h, 120° C.; for Degradation: reaction of Phe and Gluc; for % formation from degraded Phe: reaction of Phe and Suc, n.d. = not detected.
Experimental: All samples were analyzed by HPLC/MS using following conditions.
The mobile phase consisted of (A) 0.1% HCOOH (v/v) and (B) AcCN. A gradient of 5% (B) to 15% (B) was applied between 0 min to 15 min. Between 15 and 20 min (B) was increased to 45% which was kept for 5 min. Detection consisted of UV/VIS-DAD (205 nm, 254 nm, 450 nm) coupled to ESI-MS (pos mode, 300° C., TIC from m/z 120-1200, fragmentor 100).
Quantitative Evaluation was Performed Using External Standardization.
Data set [2] in a line: Sensory evaluation of combinations of NHDC, EPCalin (Thaumatin) and Combination of GSGs and SGs in water (Example 234). As to conditions: 4.5 ppm Thaumatin and/or 50 ppm GSGs and SGs. The class given is in vivo. How it is done:
4.5 ppm Thaumatin (equivalent to 10 ppm EPCalin) were dissolved in water. Increasing amounts of NHDC (1-5 ppm) were added to the solution and the sensory properties were evaluated.
50 ppm (GSGs and SGs) were dissolved in water. Increasing amounts of NHDC (1-5 ppm) were added to the solution and the sensory properties were evaluated.
50 ppm (GSGs and SGs) and 4.5 ppm Thaumatin (equivalent to 10 ppm EPCalin) were dissolved in water. Increasing amounts of NHDC (1-5 ppm) were added to the solution and the sensory properties were evaluated.
Sweetness intensity was rated on 5-point scale

Data set [3] is described as follows: Stevia-derived MRPs with NHDC and Thaumatin in Red Bull sugarfree (Example 240). It is filed as in vivo. As to conditions: 150 μl of sample in 100 ml Redbull sugar free. The method, then: Stevia-derived MRPs (Reference): 0.67 g xylose, 0.33 g phenylalanine and 4 g Stevia extract TSG95 were dissolved in 2.5 g deionized water. The solution was heated at about 100° C. for 2 h. After the reaction was complete, the slurry was diluted with 25 g water.
Stevia-derived MRPs by Combination of GSGs and SGs: 0.67 g xylose, 0.33 g phenylalanine, 4 g SGA (Combination of GSGs and SGs) were dissolved in 2.5 g deionized water. The solution was heated at about 100° C. for 2 h. After the reaction was complete, the slurry was diluted with 25 g water.
Stevia-derived MRPs by Combination of GSGs and SGs and NHDC: 0.67 g xylose, 0.33 g phenylalanine, 4 g SGA (Combination of GSGs and SGs) and 3 ppm (=82.5 μg) NHDC were dissolved in water. The solution was heated at about 100° C. for 2 h. After the reaction was complete, the slurry was diluted with 25 g water.
Stevia-derived MRPs by SGA (Combination of GSGs and SGs), NHDC and Thaumatin: 0.67 g xylose, 0.33 g phenylalanine, 4 g SGA (Combination of GSGs and SGs), 3 ppm (=82.5 μg) NHDC and 5 ppm (=302.5 μg EPCalin 45%) Thaumatin were dissolved in 2.5 g deionized water. The solution was heated at about 100° C. for 2 h. After the reaction was complete, the slurry was diluted with 25 g water.
150 μl of the each sample was added to 100 ml Redbull sugar free and mixed. The taste profiles of the samples were compared. […]

The nature of data set [4]: Assay to test reducing power (iron-III reduction test for anti-oxidant potential). It is filed as physicochemical. As to conditions: combinations of amino acids and Reb-A, 100° C., 0, 2.5 or 5.0 hours, diluted 1:10. How it is done:
Assay to Test Reducing Power
0.2 M Sodium phosphate buffer, pH=6.6; 500 mg Potassium ferric(III)cyanide/50 mL water, 10% Trichloroacetic acid; 20 mg Iron-III-Chloride/20 mL water; Calibration samples were prepared with Ascorbic acid in a concentration of 0-100 μg/mL 0.2 M Sodium phosphate buffer, pH=6.6 (freshly prepared); as negative control sample water was used.
Samples in aqueous solution were used as such or diluted in 0.2 M Sodium phosphate buffer, pH=6.6.
A 1 mL sample (or calibration standard) was mixed with 1 mL 0.2 M Sodium phosphate buffer, pH=6.6 and 1 mL Potassium ferricyanide solution. The sample was incubated and protected from light at 50° C. for 20 min.
To the solution was added 1 mL Trichloroacetic acid with thorough mixing.
A 1 mL of the mixture was diluted with 1 mL H2O and 0.2 mL Iron-Ill-chloride and reacted for 10 minutes; The absorbance was then determined at 700 nm against H2O.
10 mM of amino acid and/or 10 mM sugar were dissolved in 10 ml 0.1 mM KH2PO4-buffer, pH=7.8. […]
1 ml sample (or calibration standard) solution) was mixed with 0.2 M Sodium phosphate buffer (pH=6.6) and 1 ml Potassium ferric(III)cyanide solution in water (1% w/v) and incubated at 50° C. for 20 minutes. […] The sample was incubated for 10 minutes and absorbance read at 700 nm against a water control. […]
Quantification was performed by linear regression of calibration test results for ascorbic acid. […]

Data set [5] can be described thus: DPPH radical-scavenging activity (DPPH test for anti-oxidant potential). The conditions noted are these: combinations of amino acids and Reb-A, 100° C., 0, 2.5 or 5.0 hours, diluted 1:10. It is filed as physicochemical. The method, then: Assay to Rest DPPH Radical-Scavenging Activity
1 mg 1,1-Diphenyl-2-picrylhydrazyl radical (DPPH)/ml ethanol, dilution to assay concentration were prepared in ethanol (40 μg/mL); Calibration samples were prepared with Ascorbic acid in a concentration of 0-10 μg/mL; as a negative control sample, water was used.
Samples in aqueous solution were used as such or diluted with water.
A 0.1 ml sample (or calibration standard) was mixed with 3.9 ml solution of DPPH° (100 μMolar) and reacted while protected from light at room temperature for 30 min. Absorbance was determined at 517 nm against ethanol.
10 mM of amino acid and/or 10 mM sugar were dissolved in 10 ml 0.1 mM KH2PO4-buffer, pH=7.8.
The samples were kept at 100° C. in sealed glass vials (Pyrex 15 ml with screw caps) for 0 (before reaction), 2.5 or 5.0 hours. Thereafter the samples were transferred to an ice water bath and cooled down to room temperature. These samples were diluted 1:10 and used for the test assay for anti-oxidant potential. […]
0.2 ml sample (or calibration standard) solution was mixed with 0.2 ml solution of DPPH° (0.1 mM) and 3.6 ml methanol. […] After 3 minutes the absorbance at 517 nm was obtained against ethanol. Quantification was performed by linear regression of calibration test results for ascorbic acid. […]
(In general: Loss of DPPH colour is used to gauge radical scavenging.)

Data set [6] can be described thus: Degree of kokumi with thickeners carrageenan, gellan gum, Tamarind gum (Examples 168-170). More on the design: species or system people. As to conditions: in vivo. The method, then: Carrageenan was added to pure water to prepare several carrageenan solutions with a concentration gradient as standard solutions for judging the degree of kokumi of the carrageenan solutions. […] Method: For evaluation of the degree of kokumi, the sample solutions (described above) were tested by a panel of four people. […] The tester was allowed to re-taste, and then made judgment. […] Gellan gum was added to pure water to prepare several gellan gum solutions with a concentration gradient as standard solutions for judging the degree of kokumi of the gellan gum solutions. […] Method: For evaluation of the degree of kokumi, the sample solutions (described above) were tested by a panel of four people. […] The tester was allowed to re-taste, and then made judgment. […] Tamarind gum was added to pure water to prepare several Tamarind gum solutions with a concentration gradient as standard solutions for judging the degree of kokumi of the Tamarind gum solutions. […] Method: For evaluation of the degree of kokumi, the sample solutions (described above) were tested by a panel of four people. […] The tester was allowed to re-taste, and then made judgment.

Consider `NC(Cc1ccccc1)C(=O)O` (single isomer, unassigned) [Phe], for which the Degradation in data set [1] (pH = 5.5) is 2.26; in data set [1] (pH = 7.0) it was 2.18; in data set [1] (pH = 8.5), 4.24.

Consider `OC[C@H]1OC(O)[C@H](O)[C@@H](O)[C@@H]1O` (stereo partly shown) [Glu], for which the Degradation was 3.65 in data set [1] (pH = 5.5), 4.6 in data set [1] (pH = 7.0) and 7.62 in data set [1] (pH = 8.5).

`O=C(O)[C@H](Cc1ccccc1)NCC(=O)[C@@H](O)[C@H](O)[C@H](O)CO` [MRI (Phe-Glu)]: the “% formation from degraded Phe” value is on record as less than 0.10% in data set [1] (pH = 5.5), 0.54% in data set [1] (pH = 7.0) and 0.84% in data set [1] (pH = 8.5).

Turning to `COc1ccc(CCC(=O)c2c(O)cc(O[C@@H]3O[C@H](CO)[C@@H](O)[C@H](O)[C@H]3O[C@@H]3O[C@@H](C)[C@H](O)[C@@H](O)[C@H]3O)cc2O)cc1O` [NHDC, Neohesperidin dihydrochalcone], the “sensory properties (sweetness, onset, lingering, mouth-feel)” value in data set [2] is reported as “long lasting lingering; also recorded: boosts the lingering”. Moreover, in data set [3], the “taste profile in sugarfree beverage” value is “improved the mouth-feel and harmony of taste impression yielding a substantially improved taste profile”.

In the case of `C=C1C[C@@]23CC[C@H]4[C@@](C)(CCC[C@@]4(C)C(=O)O[C@@H]4O[C@H](CO)[C@@H](O)[C@H](O)[C@H]4O)[C@@H]2CC[C@]1(O[C@@H]1O[C@H](CO)[C@@H](O)[C@H](O[C@@H]2O[C@H](CO)[C@@H](O)[C@H](O)[C@H]2O)[C@H]1O[C@@H]1O[C@H](CO)[C@@H](O)[C@H](O)[C@H]1O)C3` [Reb-A, Rebaudioside A], the “anti-oxidant properties (active iron-III reduction)” value in data set [4] was “substantial anti-oxidant properties”. The “anti-oxidant properties (radical scavenging)” value in data set [5] is “substantial anti-oxidant properties”.

Tamarind gum: in data set [6], the “concentration above which taste like starch paste can be clearly felt” value is given as “exceeds 1400 ppm”.

Turning to carrageenan, the “concentration above which taste like starch paste can be clearly felt” value in data set [6] is on record as “exceeds 1000 ppm”.

For the compound gellan gum, in data set [6], the “concentration above which taste like starch paste can be clearly felt” value is reported as “exceeds 1400 ppm”.
